Measured values: patent publication US5686486A, “4-hydroxy-benzopyran-2-ones and 4-hydroxy-cycloalkyl[b]pyran-2-ones useful to treat retroviral infections” (priority 1995, dated 1997)
Where a name gives a salt, the structure may show the parent alone. Read-outs that look alike come from different tables or passages of the source.

Target: HIV-1 protease (Human immunodeficiency virus type 1 group M subtype B, UniProt P04585)
Experiment: biochemical
Conditions: for inhibition at 0.123 µM: read-out: HIV-1 Protease % Inhib, dose 0.123 uM
Procedure, shortened: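 Percent inhibition derived from fluorescent cleavage product separated by filtration after streptavidin-bead capture of intact biotin/FITC substrate. Reaction: enzyme (10 μl, 0.1 μM stock) with substrate (20 μl, 0.2 μM stock) and compound, 1 h at room temperature in dark, pH 5.5 acetate buffer with 1.0 M NaCl and 0.05% NP-40.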

[1] = dose 1.100 uM, read-out: HIV-1 Protease % Inhib
[2] = dose 3.300 uM, read-out: HIV-1 Protease % Inhib
[3] = dose 10.000 uM, read-out: HIV-1 Protease % Inhib
[4] = dose 30.000 uM, read-out: HIV-1 Protease % Inhib
[5] = dose 0.370 uM, read-out: HIV-1 Protease % Inhib
[6] = read-out: HIV-1 Protease % Inhib, dose 0.370 uM
[7] = read-out: HIV-1 Protease % Inhib, dose 1.100 uM
[8] = read-out: HIV-1 Protease % Inhib, dose 3.300 uM
[9] = read-out: HIV-1 Protease % Inhib, dose 10.000 uM
[10] = read-out: HIV-1 Protease % Inhib, dose 30.000 uM

| Compound | inhibition at 1.1 µM [1] [%] | inhibition at 3.3 µM [2] [%] | inhibition at 10 µM [3] [%] | inhibition at 30 µM [4] [%] | inhibition at 0.37 µM [5] [%] | inhibition at 0.123 µM [%] | inhibition at 0.37 µM [6] [%] | inhibition at 1.1 µM [7] [%] | inhibition at 3.3 µM [8] [%] | inhibition at 10 µM [9] [%] | inhibition at 30 µM [10] [%] |
| --- | --- | --- | --- | --- | --- | --- | --- | --- | --- | --- | --- |
| COCCOCCOCCC1CCCCc2c1oc(=O)c(C(c1ccccc1)C1CC1)c2O (centres unmarked) [Example 181, 3-(Cyclopropylphenylmethyl)-6,7,8,9-tetrahydro-4-hydroxy-9-[2-[2-(2-methoxyethoxy)ethoxy]ethyl]-cyclohepta[b]pyran-2(5H)-one] | 10.4 | 35.1 | 66.6 | 79.3 | – | – | – | – | – | – | – |
| O=c1oc2c(c(O)c1C(c1ccccc1)C1CC1)CCCCC2CC1CCCOC1 (centres unmarked) [Example 187, 3-(Cyclopropylphenylmethyl)-6,7,8,9-tetrahydro-4-hydroxy-9-[(tetrahydro-2H-pyran-3-yl)methyl]-cyclohepta[b]pyran-2(5H)-one] | 32.9 | 68 | 90 | 90.2 | 10.6 | – | – | – | – | – | – |
| O=c1oc2c(c(O)c1C(c1ccccc1)C1CC1)CCCCC2CC1CCCCO1 (centres unmarked) [Example 190, 3-(Cyclopropylphenylmethyl)-6,7,8,9-tetrahydro4-hydroxy-9-[(tetrahydro-2H-pyran-2-yl)methyl]-cyclohepta[b]pyran-2(5H)-one] | 35.9 | 79.3 | 96 | 102 | – | – | – | – | – | – | – |
| COCCC1CCCCc2c1oc(=O)c(C(c1ccccc1)C1CC1)c2O (centres unmarked) [Example 193, 3-(Cyclopropylphenylmethyl)-6,7,8,9-tetrahydro-4-hydroxy-9-(methoxyethyl)-cyclohepta[b]pyran-2(5H)-one] | 35 | 70.4 | 97.7 | 105 | – | – | – | – | – | – | – |
| C[C@H](NC(=O)OC(C)(C)C)C(=O)Nc1cccc(C(c2c(O)c3c(oc2=O)CCCCCC3)C2CC2)c1 (stereo partly drawn) [Example 198, Carbamic acid, [2-[[3-[cyclopropyl(5,6,7,8,9,10-hexahydro-4-hydroxy-2-oxo-2H-cycloocta[b]pyran-3-yl)methyl]phenyl]amino]-1-(S)-methyl-2-oxyethyl]-, 1,1-dimethylethyl ester] | – | – | – | – | – | 67.1 | 91.9 | 107 | 111 | 115 | 116 |
| CC(C)(C)OC(=O)NCCCC(=O)Nc1cccc(C(c2c(O)c3c(oc2=O)CCCCCC3)C2CC2)c1 (centres unmarked) [Example 201, Carbamic acid, [4-[[3-[cyclopropyl(5,6,7,8,9,10-hexahydro,-hydroxy-2-oxo-2H-cycloocta[b]pyran-3-yl)methyl]phenyl]amino]-4-oxybutyl]-, 1,1-dimethylethyl ester] | – | – | – | – | – | 31.2 | 60.1 | 80 | 95.4 | 100 | 107 |
| CC(C)(C)OC(=O)N1CCC[C@H]1C(=O)Nc1cccc(C(c2c(O)c3c(oc2=O)CCCCCC3)C2CC2)c1 (stereo partly drawn) [Example 202, 1-(S)-Pyrrolidinecarboxylic acid, 2-[[[3-[cyclopropyl(5,6,7,8,9,10-hexahydro-4-hydroxy-2-oxo-2H-cycloocta[b]pyran-3-yl)methyl]phenyl]amino]carbonyl]-, 1,1-dimethylethyl ester] | – | – | – | – | – | 20.1 | 48.1 | 73.1 | 88.1 | 93.8 | 94.4 |
| C[C@@H](NC(=O)OC(C)(C)C)C(=O)Nc1cccc(C(c2c(O)c3c(oc2=O)CCCCCC3)C2CC2)c1 (stereo partly drawn) [Example 203, Carbamic acid, [2-[[3-[cyclopropyl(5,6,7,8,9,10-hexahydro-4-hydroxy-2-oxo-2H-cycloocta[b]pyran-3-yl)methyl]phenyl]amino]-1-(R)-methyl-2-oxyethyl]-, 1,1-dimethylethyl ester] | – | – | – | – | – | 15.6 | 55.8 | 81.3 | 94.3 | 104 | 94.3 |
| CC(C)(C)OC(=O)N[C@H](Cc1c[nH]cn1)C(=O)Nc1cccc(C(c2c(O)c3c(oc2=O)CCCCCC3)C2CC2)c1 (stereo partly drawn) [Example 204, Carbamic acid, [2-[[3-[cyclopropyl(5,6,7,8,9,10-hexahydro-4-hydroxy-2-oxo-2H-cycloocta[b]pyran-3-yl)methyl]phenyl]amino]-1-(R)-(1H-imidazol-4-ylmethyl)-2-oxoethyl]-, 1,1-dimethylethyl ester] | – | – | – | – | – | 49 | 86.5 | 107 | 114 | 117 | 116 |
| CCC(c1cccc(N)c1)c1c(O)c2c(oc1=O)CCCCCC2 (centres unmarked) [Example 218, 2H-Cycloocta[b]pyran-2-one, 3-[1-(3-aminophenyl)propyl]-5,6,7,8,9,10-hexahydro-4-hydroxy-] | 26.2 | 65.2 | 88 | 91.4 | – | – | – | – | – | – | – |
| CCC(c1cccc(NC(=O)CCN)c1)c1c(O)c2c(oc1=O)CCCCCC2 (centres unmarked) [Example 220, Propanamide, 3-amino-N-[3-[1-(5,6,7,8,9,10-hexahydro4-hydroxy-2-oxo-2H-cycloocta[b]pyran-3-yl)propyl]phenyl]-, monohydrochloride] | 25.2 | 63.6 | 94 | 101 | – | – | – | – | – | – | – |
| CCC(c1cccc(NS(=O)(=O)c2ccc(Cl)cc2)c1)c1c(O)c2c(oc1=O)CCCCCC2 (centres unmarked) [Example 221, Benzenesulfonamide, 4-chloro-N-[3-[1-(5,6,7,8,9,10-hexahydro-4-hydroxy-2-oxo-2H-cycloocta[b]pyran-3-yl)propyl]phenyl]-] | – | – | – | – | – | 79.7 | 101 | 116 | 117 | 119 | 124 |

Further lines, with some results ahead:

| inhibition at 1.1 µM [1] [%] | inhibition at 3.3 µM [2] [%] | inhibition at 10 µM [3] [%] | inhibition at 30 µM [4] [%] | inhibition at 0.37 µM [5] [%] | Compound | inhibition at 0.123 µM [%] | inhibition at 0.37 µM [6] [%] | inhibition at 1.1 µM [7] [%] | inhibition at 3.3 µM [8] [%] | inhibition at 10 µM [9] [%] | inhibition at 30 µM [10] [%] |
| --- | --- | --- | --- | --- | --- | --- | --- | --- | --- | --- | --- |
| 31.3 | 67.7 | 94.1 | 109 | – | COCCOCCC1CCCCc2c1oc(=O)c(C(c1ccccc1)C1CC1)c2O (centres unmarked) [Example 180, 3-(Cyclopropylphenylmethyl)-6,7,8,9-tetrahydro-4-hydroxy-9-[2-(2-methoxyethoxy)ethyl]-cyclohepta[b]pyran-2(5H)-one] | – | – | – | – | – | – |
| 29.2 | 64.6 | 88.7 | 101 | – | O=c1oc2c(c(O)c1C(c1ccccc1)C1CC1)CCCCC2CCC1OCCO1 (centres unmarked) [Example 186, 3-(Cyclopropylphenylmethyl)-9-[2-(1,3-dioxolan-2-yl)ethyl]-6,7,8,9-tetrahydro-4-hydroxy-cyclohepta[b]pyran-2(5H)-one] | – | – | – | – | – | – |
| 55 | 93.3 | 101 | 100 | 16.9 | O=c1oc2c(c(O)c1C(c1ccccc1)C1CC1)CCCCC2CC1CCOC1 (centres unmarked) [Example 191, 3-(Cyclopropylphenylmethyl)-6,7,8,9-tetrahydro-4-hydroxy-9-[(tetrahydro-3-furanyl)methyl]-cyclohepta[b]pyran-2(5H)-one] | – | – | – | – | – | – |
| 24.9 | 68.8 | 102 | 102 | – | CC(O)CC1CCCCc2c1oc(=O)c(C(c1ccccc1)C1CC1)c2O (centres unmarked) [Example 192, 3-(Cyclopropylphenylmethyl)-6,7,8,9-tetrahydro-4-hydroxy-9-(2-hydroxypropyl)-cyclohepta[b]pyran-2(5H)-one] | – | – | – | – | – | – |
| 48 | 76.4 | 95.8 | 93.1 | 17.9 | O=C(Nc1cccc(C(c2c(O)c3c(oc2=O)CCCCCC3)C2CC2)c1)c1ccc(Cl)cc1 (centres unmarked) [Example 206, Benzamide, 4-chloro-N-[3-[cyclopropyl(5,6,7,8,9,10-hexahydro-4-hydroxy-2-oxo-2H-cycloocta[b]pyran-3-yl)methyl]phenyl]-] | – | – | – | – | – | – |
| 22.9 | 57.6 | 76.8 | 84.4 | – | O=C(C=Cc1ccccc1)Nc1cccc(C(c2c(O)c3c(oc2=O)CCCCCC3)C2CC2)c1 (centres unmarked) [Example 208] | – | – | – | – | – | – |
| – | 32.5 | 59.5 | 69.5 | – | O=C(Nc1cccc(C(c2c(O)c3c(oc2=O)CCCCCC3)C2CC2)c1)c1cccc2ccccc12 (centres unmarked) [Example 212, 1-Naphthalenecarboxamide, N-[3-[cyclopropyl(5,6,7,8,9,10-hexahydro4-hydroxy-2-oxo-2H-cyclooct[b]pyran-3-yl)methyl]phenyl]-] | – | – | – | – | – | – |
| – | – | 10.9 | 31.4 | – | CC(C)(C)OC(=O)NCC(=O)N(Cc1ccccc1)c1cccc(C(c2c(O)c3c(oc2=O)CCCCCC3)C2CC2)c1 (centres unmarked) [Example 216, Carbamic acid, [2-[[3-[cyclopropyl(5,6,7,8,9,10-hexahydro4-hydroxy-2-oxo-2H-cycloocta[b]pyran-3-yl)methyl]phenyl](phenylmethyl)amino]-2-oxyethyl]-, 1,1-dimethylethyl ester] | – | – | – | – | – | – |
| – | 31.6 | 64.2 | 72.9 | – | CCC(c1cccc(NC(=O)OCc2ccccc2)c1)c1c(O)c2c(oc1=O)CCCCCC2 (centres unmarked) [Example 217, Carbamic Acid, [3-[1-(5,6,7,8,9,10-hexahydro-4-hydroxy-2-oxo-2H-cycloocta[b]pyran-3-yl)propyl]phenyl]-, phenyl methyl ester] | – | – | – | – | – | – |
